This test has as its target T1, Carboxypeptidase O (CPO) (Homo sapiens, UniProt Q8IVL8, W297L).
T1 construct: full-length GPI-anchored enzyme without prodomain, (plasmid pcDNA-CPO in HEK293T); Triton X-100 cell lysate
T1 sequence (Q8IVL8 21-352 W297L): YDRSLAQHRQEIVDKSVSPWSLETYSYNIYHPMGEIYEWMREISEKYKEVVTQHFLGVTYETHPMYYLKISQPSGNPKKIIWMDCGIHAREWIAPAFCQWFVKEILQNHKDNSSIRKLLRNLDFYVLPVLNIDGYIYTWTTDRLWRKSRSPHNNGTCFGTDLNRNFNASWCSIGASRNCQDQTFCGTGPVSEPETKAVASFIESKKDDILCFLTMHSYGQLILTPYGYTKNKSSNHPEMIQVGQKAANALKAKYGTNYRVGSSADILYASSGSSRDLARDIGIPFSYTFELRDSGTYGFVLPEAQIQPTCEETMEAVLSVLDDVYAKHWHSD
Nature of the test: absorbance decrease at […] nm after […] min. As to conditions: lysate of transfected HEK293T cells; 0.5 mM FA-EE, 37°C; inactive mutant. The format is biochemical.

SMILES strings stand for the structures.

`O=C(O)CC[C@H](NC(=O)[C@H](CCC(=O)O)NC(=O)C=Cc1ccco1)C(=O)O` [FA-Glu-Glu]: the no enzymatic activity entry is on record as “The W297L CPO mutant exhibits no enzymatic activity, although fully expressed”.
